Results taken from article PMC5054432 (Scientific Reports, 2016).
Values joined by “and” are separate entries in the source; they are usually repeats but may differ in a detail not shown here. Equal values may be shown once.

Experiments:
[1] = target: T1, wt GluN1/GluN2B receptors (UniProt P35439+Q01097); assay: MK-801 inhibition kinetics (index of channel open probability), TEVC in oocytes; assay type: cell-based, rat GluN1-1a, mouse GluN2B; details: 50 nM MK-801, normalized to mean τon of wt
Method: (§1) To analyze the gating property change, we assessed channel maximal open probability (Po) using MK-801, a specific open-pore blocker of NMDARs[25]. Because the rate at which MK-801 inhibits the macroscopic NMDAR responses is proportional to the level of channel activity (i.e. Po), this MK-801 assay is classically used to index NMDAR channel activity.
(§2) For all experiments, the standard external solutions contained: 100 mM NaCl, […] BaCl2, and 5 mM HEPES, pH adjusted to 7.3 with KOH. […] Currents were recorded and measured at a holding potential of −60 mV at room temperature.
(§3) The measurements at 30 μM were corrected by multiply with a correcting value to remove the pore blocking effect at −60 mV[49]. Zinc was prepared at 100 mM ZnCl2 stock (in 1% HCl). In all zero-Zn^2+ control solutions, diethylenetriamine-pentaacetic acid (DTPA, 10 μM) was added to chelate trace Zn^2+ and other heavy metals. Spermine potentiation was analyzed as described earlier. Solutions of 200 μM spermine (Sigma-Aldrich) were made by directly diluting the powder into the standard agonist solution. Spermine sensitivity was assessed at pH 6.5 in order to maximize the spermine-induced potentiation. Experiments with MK-801 were performed as described previously. […] Each τon was then normalized to the mean τon of wt receptors measured the same day. […]

[2] = target: T2, GluN1/GluN2B-F114AzF receptors (Rattus norvegicus (GluN1-1a); Mus musculus (GluN2B), UniProt P35439+Q01097); assay: as above; assay type: cell-based, rat GluN1-1a, mouse GluN2B; parameters: expressed in transfected cells; host or cells: Xenopus laevis oocytes co-injected with GluN1, GluN2B amber mutant, Yam suppressor tRNA and AzF-RS, incubated with 1 mM AzF; details: 50 nM MK-801, normalized to mean τon of wt
Method: as §1, §2, §3

[3] = target: T1, wt GluN1/GluN2B receptors; assay: Ifenprodil and Zn2+ inhibition dose-response, TEVC in Xenopus laevis oocytes; assay type: cell-based, rat GluN1-1a, mouse GluN2B
Method: (§4) Oocytes were prepared and injected as described previously. Recombinant NMDARs were expressed in Xenopus laevis oocytes after nuclear injection of 36 nl of a mixture cDNAs encoding various GluN1 and GluN2 subunits (ratio 1:1, 10 ng/μl for GluN2A and 30 ng/μl for GluN2B). For Uaa incorporation, oocytes were co-injected with a 36 nl mixture of cDNAs containing GluN1, GluN2, Yam, and aaRS as follows, unless otherwise indicated in the text: GluN1-wt (60 ng/μl), GluN2A-F115AzF (60 ng/μl), Yam (5 ng/μl), AzF-RS (2.5 ng/μl); or, GluN1-wt (80 ng/μl), GluN2B-F114AzF (80 ng/μl), Yam (10 ng/μl), AzF-RS (5 ng/μl). After injection, oocytes were incubated at 19 °C in a Barth solution (88 mM NaCl, 1 mM KCl, 0.33 mM Ca(NO3)2, 0.41 mM CaCl2, 0.82 mM MgSO4, 2.4 mM NaHCO3, 10 mM HEPES, pH adjusted to 7.6 with NaOH) supplemented with gentamicin sulfate ([…]) and D-APV (50 μM). AzF was dissolved with sonication in Barth solution (stock solution at 10 mM), and diluted (1 mM) for oocytes incubation.
as §2
(§5) The measurements at 30 μM were corrected by multiply with a correcting value to remove the pore blocking effect at −60 mV[49]. Zinc was prepared at 100 mM ZnCl2 stock (in 1% HCl). In all zero-Zn^2+ control solutions, diethylenetriamine-pentaacetic acid (DTPA, 10 μM) was added to chelate trace Zn^2+ and other heavy metals. Spermine potentiation was analyzed as described earlier. Solutions of 200 μM spermine (Sigma-Aldrich) were made by directly diluting the powder into the standard agonist solution. Spermine sensitivity was assessed at pH 6.5 in order to maximize the spermine-induced potentiation. Experiments with MK-801 were performed as described previously. MK-801 solutions (10–50 nM) were prepared by dilution of stock solution (50 μM) into agonist containing solution[4]. MK-801 time constants of inhibition (τon) were obtained by fitting currents with a single-exponential component to a time window corresponding to 10–90% of maximum inhibition. Each τon was then normalized to the mean τon of wt receptors measured the same day.
(§6) For all functional recordings in Xenopus oocytes, online UV light treatment with PE-2 light source (CoolLED) using a 365 nm filter channeled through optical fiber was directly applied to the dark hemisphere of the oocytes in the recording chamber. […] For measurements in presence of agonists and allosteric modulators, the UV application duration was ~3 min. In the absence of agonist, the UV application duration was ~5 min.

[4] = target: T2, GluN1/GluN2B-F114AzF receptors; assay: as above; assay type: cell-based; details: for IC50 / Zn2+ Hill coefficient nH: F114AzF mutant
Method: as §4, §2, §5, §6

[5] = target: T2, GluN1/GluN2B-F114AzF receptors; assay: UV-induced current potentiation in the presence of allosteric modulators, TEVC in oocytes; assay type: cell-based, rat GluN1-1a, mouse GluN2B; parameters: expressed in transfected cells; host or cells: Xenopus laevis oocytes co-injected with GluN1, GluN2B amber mutant, Yam suppressor tRNA and AzF-RS, incubated with 1 mM AzF
Source text: To evaluate whether AzF photo-activation in GluN2B produces functional changes, we applied a time-resolved assay[10] by combining online application of UV light and simultaneously recording of agonist-induced currents using TEVC. Current after UV illumination (Iuv) were compared to currents before UV illumination (Io) and yielded the relative current changes (Iuv/Io).
To understand how the NTD dimer interfacial contact influences allosteric modulation, we have quantified UV-induced potentiation in the presence of different modulators, including a GluN2B specific positive allosteric modulator spermine.
as §2, §5, §6

[6] = target: T2, GluN1/GluN2B-F114AzF receptors; details: 200 μM spermine, pH 6.5, without UV
Method: For all experiments, the standard external solutions contained: 100 mM NaCl, 300 mM BaCl2, and 5 mM HEPES, pH adjusted to 7.3 with KOH. […] Currents were recorded and measured at a holding potential of −60 mV at room temperature.
The measurements at 30 μM were corrected by multiply with a correcting value to remove the pore blocking effect at −60 mV[49]. Zinc was prepared at 100 mM ZnCl2 stock (in 1% HCl). In all zero-Zn^2+ control solutions, diethylenetriamine-pentaacetic acid (DTPA, 10 μM) was added to chelate trace Zn^2+ and other heavy metals[25]. […] Experiments with MK-801 were performed as described previously. MK-801 solutions (10–50 nM) were prepared by dilution of stock solution (50 μM) into agonist containing solution[4]. MK-801 time constants of inhibition (τon) were obtained by fitting currents with a single-exponential component to a time window corresponding to 10–90% of maximum inhibition. Each τon was then normalized to the mean τon of wt receptors measured the same day.

wild-type GluN1 (rat) = wild-type GluN1 (rat) (UniProt P35439)

T1 sequence (Q01097 27-1482, other chains not shown): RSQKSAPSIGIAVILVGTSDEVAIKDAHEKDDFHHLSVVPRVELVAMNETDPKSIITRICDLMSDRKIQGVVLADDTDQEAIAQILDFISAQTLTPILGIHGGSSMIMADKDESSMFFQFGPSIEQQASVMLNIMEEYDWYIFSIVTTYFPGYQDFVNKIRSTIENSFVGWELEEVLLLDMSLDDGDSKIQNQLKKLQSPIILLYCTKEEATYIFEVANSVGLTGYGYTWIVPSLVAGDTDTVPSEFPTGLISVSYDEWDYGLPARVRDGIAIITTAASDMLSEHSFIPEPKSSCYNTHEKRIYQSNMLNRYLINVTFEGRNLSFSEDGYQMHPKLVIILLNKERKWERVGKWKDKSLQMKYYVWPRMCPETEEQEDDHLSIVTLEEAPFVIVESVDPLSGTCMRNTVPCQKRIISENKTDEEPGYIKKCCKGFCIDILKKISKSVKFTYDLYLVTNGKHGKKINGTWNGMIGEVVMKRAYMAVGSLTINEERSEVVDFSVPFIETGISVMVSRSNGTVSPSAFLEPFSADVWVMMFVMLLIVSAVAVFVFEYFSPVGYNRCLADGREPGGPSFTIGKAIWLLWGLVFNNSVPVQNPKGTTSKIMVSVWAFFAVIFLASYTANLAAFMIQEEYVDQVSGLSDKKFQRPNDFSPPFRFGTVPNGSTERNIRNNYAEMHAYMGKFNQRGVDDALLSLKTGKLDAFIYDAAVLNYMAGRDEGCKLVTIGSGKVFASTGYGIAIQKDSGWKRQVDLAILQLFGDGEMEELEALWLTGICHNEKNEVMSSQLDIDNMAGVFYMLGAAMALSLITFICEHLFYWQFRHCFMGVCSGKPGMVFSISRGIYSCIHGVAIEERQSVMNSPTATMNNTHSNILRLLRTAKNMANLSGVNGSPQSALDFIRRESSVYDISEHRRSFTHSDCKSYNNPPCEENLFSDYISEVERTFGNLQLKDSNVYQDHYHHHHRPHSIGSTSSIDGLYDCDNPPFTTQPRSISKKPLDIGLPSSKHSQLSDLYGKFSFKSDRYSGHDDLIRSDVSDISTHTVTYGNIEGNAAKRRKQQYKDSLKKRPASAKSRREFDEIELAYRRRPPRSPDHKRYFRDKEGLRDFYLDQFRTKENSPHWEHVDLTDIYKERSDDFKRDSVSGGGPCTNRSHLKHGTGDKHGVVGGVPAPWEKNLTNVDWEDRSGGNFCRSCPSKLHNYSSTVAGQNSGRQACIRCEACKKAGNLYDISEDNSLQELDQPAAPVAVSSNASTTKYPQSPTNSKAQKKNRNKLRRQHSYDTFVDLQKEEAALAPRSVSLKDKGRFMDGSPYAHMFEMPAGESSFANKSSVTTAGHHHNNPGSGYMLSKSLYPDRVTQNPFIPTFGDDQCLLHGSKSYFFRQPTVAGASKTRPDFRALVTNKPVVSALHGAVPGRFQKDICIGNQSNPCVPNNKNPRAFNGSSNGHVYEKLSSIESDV
T2 sequence (Q01097 27-1482, other chains not shown): as above

## C[C@]12N[C@H](Cc3ccccc31)c1ccccc12 [MK-801, (+)-MK-801]
[1]; wild-type with UV
  Relative MK-801 τon: 0.90 ± 0.06
[1]; wild-type without UV
  Relative MK-801 τon: 1.00
[2]; F114AzF mutant with UV
  Relative MK-801 τon: 0.80 ± 0.07
[2]; F114AzF mutant without UV
  Relative MK-801 τon: 1.81 ± 0.47

## [Cl-].[Cl-].[Zn+2] [Zn^2+, ZnCl2]
[3]; after UV
  IC50: 720 ± 120 nM
  Zn2+ Hill coefficient nH: 0.78
[3]; before UV
  IC50: 580 ± 130 nM
  Zn2+ Hill coefficient nH: 0.59
[4]; 0.1uM inhibitor, +UV
  Maximal inhibition (%): 16 ± 7%
[4]; 0.1uM inhibitor, -UV
  Maximal inhibition (%): 25 ± 8%
[4]; 1uM inhibitor, +UV
  Maximal inhibition (%): 35 ± 4%
[4]; 1uM inhibitor, -UV
  Maximal inhibition (%): 49 ± 11%
[4]; 10uM inhibitor, +UV
  Maximal inhibition (%): 83 ± 1%
[4]; 10uM inhibitor, -UV
  Maximal inhibition (%): 87 ± 4%
[4]; F114AzF mutant before and after UV versus wt
  Change in Zn2+ maximal inhibition: no change
[4]; after UV
  IC50: 1720 ± 600 nM
  Zn2+ Hill coefficient nH: 0.77
[4]; before UV
  IC50: 780 ± 250 nM
  Zn2+ Hill coefficient nH: 0.62
[5]; 10 μM Zn2+ with co-agonists, +UV (~3 min, 365 nm)
  Relative current (I+uv/I0) after wash-off of modulator: 1.40 ± 0.43
[5]; 10 μM Zn2+ with co-agonists, -UV
  Relative current (I/I0) after wash-off of modulator: 0.92 ± 0.29

## CC(C(O)c1ccc(O)cc1)N1CCC(Cc2ccccc2)CC1 (centres unmarked) [ifenprodil]
[3]
  Ifenprodil Hill coefficient nH: 1.14
[4]
  Ifenprodil maximal inhibition: 77% and 67%
[4]; 0.1 µM
  Maximal inhibition (%): 16 ± 3% and 9 ± 4 %
[4]; 1 µM
  Maximal inhibition (%): 54 ± 4% and 35 ± 4 %
[4]; 10 µM
  Maximal inhibition (%): 77 ± 3% and 55 ± 3 %
[5]; in the presence of ifenprodil
  Effect on UV potentiation: completely abolished

## NCCCNCCCCNCCCN [spermine]
[6]
  Spermine potentiation of receptor activation: 4.6 fold
[5]; 200 μM spermine, pH 6.5, +UV (~3 min, 365 nm)
  Relative current (I+uv/I0): 2.80 ± 0.64
[5]; 200 μM spermine, pH 6.5, -UV
  Relative current (I/I0): 0.85 ± 0.10
[5]; in the presence of 200 μM spermine, pH 6.5
  τon of UV induced additional potentiation: 50.8 s

## GluN2B-F114AzF (from UniProt Q01097 27-1482) (receptor)
wild-type GluN1 (rat)
  relative current Iuv/Io after UV illumination of maximally activated receptors (TEVC in oocytes, UV-induced potentiation): 1.97
